The text below walks through data of patent publication US20090253634A1, “Methods and Compositions for the Treatment of Gastrointestinal Disorders” (MICROBIA, INC., priority 2005, published 2009).

SMILES strings stand for the structures. Bridge positions count the residues as written; N and C are the ends. Peptide text beside a SMILES is read from it.

One data set has as its target T1, chymotrypsin (Bos taurus, UniProt P00766).
T1 construct: purchased Sigma-Aldrich C6423; host or cells: bovine pancreas
Kind of data set: in vitro proteolytic stability: chymotrypsin. It is filed as in vitro ADME, bovine. Conditions: 37° C., up to 24 h. The method, then: All samples were analyzed by LC/MS
Samples were returned to the 37° C. water bath.

Another data set has as its target T2, guanylate cyclase C (Mus musculus, UniProt Q3UWA6).
T2 construct: isolated intestinal epithelial cells from two female wild-type and two female GC-C KO mice; from tissue; host or cells: mouse intestinal epithelial cells (homogenised), wild-type; GC-C KO mice as control
T2 sequence (Q3UWA6 20-1072): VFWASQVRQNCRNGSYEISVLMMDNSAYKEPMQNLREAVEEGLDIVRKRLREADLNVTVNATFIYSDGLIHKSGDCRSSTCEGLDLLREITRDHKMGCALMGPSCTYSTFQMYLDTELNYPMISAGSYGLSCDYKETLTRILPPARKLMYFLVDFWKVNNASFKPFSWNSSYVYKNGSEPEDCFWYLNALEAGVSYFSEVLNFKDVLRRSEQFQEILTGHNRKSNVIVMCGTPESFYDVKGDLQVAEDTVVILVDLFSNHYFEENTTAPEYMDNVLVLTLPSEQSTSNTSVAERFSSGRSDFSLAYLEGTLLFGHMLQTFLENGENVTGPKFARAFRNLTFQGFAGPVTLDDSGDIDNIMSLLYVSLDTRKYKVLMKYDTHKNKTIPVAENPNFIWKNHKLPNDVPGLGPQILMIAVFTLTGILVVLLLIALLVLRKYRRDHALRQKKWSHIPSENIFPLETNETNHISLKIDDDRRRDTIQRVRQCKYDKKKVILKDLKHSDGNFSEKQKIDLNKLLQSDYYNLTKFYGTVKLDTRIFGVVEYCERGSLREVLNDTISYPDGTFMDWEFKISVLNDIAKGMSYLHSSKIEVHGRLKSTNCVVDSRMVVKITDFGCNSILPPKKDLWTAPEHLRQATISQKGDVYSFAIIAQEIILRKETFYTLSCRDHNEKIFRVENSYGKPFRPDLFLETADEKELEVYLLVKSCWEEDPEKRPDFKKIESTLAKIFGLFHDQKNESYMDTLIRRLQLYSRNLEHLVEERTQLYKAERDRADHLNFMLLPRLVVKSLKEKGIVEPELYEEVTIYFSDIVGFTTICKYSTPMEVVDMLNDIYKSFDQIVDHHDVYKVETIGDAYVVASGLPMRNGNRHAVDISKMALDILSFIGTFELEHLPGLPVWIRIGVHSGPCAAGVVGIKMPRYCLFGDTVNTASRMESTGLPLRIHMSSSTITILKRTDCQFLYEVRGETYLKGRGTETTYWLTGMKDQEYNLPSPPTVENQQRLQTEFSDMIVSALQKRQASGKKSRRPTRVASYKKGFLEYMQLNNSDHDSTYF
Kind of data set: competition binding assay on intestinal epithelial cells of wild-type and GC-C KO mice. Conditions: GC-C KO mice compared to wild-type mice; 125I-SEQ ID NO:3.

For another data set, the system named is carboxypeptidase A. The data set is described as follows: in vitro proteolytic stability: carboxypeptidase A. The method, then:
The stability of SEQ ID NO:3 in the presence of several mammalian digestive enzymes was determined. SEQ ID NO:3 was exposed to a variety of in vitro conditions including digestive enzymes and low ph environments designed to simulate gastric fluid. SEQ ID NO:3 was incubated with chymotrypsin, trypsin, pepsin, aminopeptidase, carboxypeptidase A, and simulated gastric fluid (sgf) at ph 1.0. Samples were collected at 0, 3, and 24 h for all conditions except pepsin digestion and the SGF. For the latter two conditions, samples were obtained at 0, 1, and 3 h. Negative control samples were prepared for initial and final time points. A separate, positive activity control was run in parallel to SEQ ID NO:3. All samples were analyzed by LC/MS
Five (5) μL of a 40 μg/mL carboxypeptidase inhibitor (carboxypeptidase inhibitor from potato tuber (Sigma-Aldrich, C0279) stock was added to each control sample (0 and 24 h), for a final concentration of 0.4 μg/mL. All control and test (0, 3 and 24 h) samples were incubated at 37° C. for 5 min. Twenty (20) μL of a 0.01 mg/mL carboxypeptidase A (Carboxypeptidase A from human pancreas; Sigma-Aldrich, C5358) stock was added to each sample. The samples were returned to the 37° C. water bath. The reaction was quenched with 5 μL of a 40 μg/mL carboxypeptidase inhibitor at the proper time point. No extra carboxypeptidase inhibitor was added to the control samples since there was already inhibitor present. Samples were subsequently flash frozen in liquid nitrogen, and stored at −80° C. until analysis. Upon analysis, samples were thawed and transferred to a 1 mL 96-well deep microtiter plate. […] These standards were used to generate a standard curve for quantification of samples. When necessary, the standard curves were also used to calculate the concentration of the corresponding digestion product. Ten (10) μL injections were made of each sample and standard. […] For the SEQ.
To further study the SEQ ID NO:3 carboxypeptidase A digestion product, samples of 0.01 mg/mL SEQ ID NO:3 were prepared in the carboxypeptidase A reaction buffer at a total volume of 500 μL in 2 mL eppendorf tubes. Triplicate samples were prepared for the following time points: 0, 15, 30, 60, 120, 180 and 240 min. The samples were incubated at 37° C. for 5 min. Twenty (20) μL of a 0.01 mg/mL carboxypeptidase A stock were added to each sample and returned to the 37° C. water bath. The reactions were quenched with 5 μL of a 40 μg/mL carboxypeptidase inhibitor at the proper time points. Samples were subsequently flash frozen in liquid nitrogen, and stored at −80° C. until analysis. Upon analysis, samples were thawed and transferred to a 1 mL 96-well plate. Standards of SEQ ID NO:3 were prepared in carboxypeptidase A reaction buffer at 0.625, 1.25, 2.50, 5.00, and 10.00 μg/mL concentrations. These standards were used to generate a standard curve for quantification of samples. When necessary, the standard curves were also used to calculate the concentration of the corresponding digestion product. Ten (10) μL injections were made of each sample and standard. If the formation of a digestion product was evident, then a spectral analysis was used to determine the mass of the digestion product, and predict its possible identity.

Method for guanylate cyclase C: Mouse intestinal epithelial cells were prepared identical to that above as for rat intestinal epithelial cells except the cells were homogenized with an Omni homogenizer for 20 seconds on the maximum setting to make a suspension of cells. A competition binding assay was performed identical to that described above between ^125I labeled SEQ ID NO:3 and unlabeled SEQ ID NO:3 (competitor).

As to `C[C@@H]1NC(=O)[C@@H]2CCCN2C(=O)[C@H](CC(N)=O)NC(=O)[C@@H]2CSSC[C@H](N)C(=O)N[C@H]3CSSC[C@H](NC1=O)C(=O)N[C@@H]([C@@H](C)O)C(=O)NCC(=O)N[C@H](C(=O)N[C@@H](Cc1ccc(O)cc1)C(=O)O)CSSC[C@H](NC(=O)[C@H](Cc1ccc(O)cc1)NC(=O)[C@H](CCC(=O)O)NC3=O)C(=O)N2` [SEQ ID NO:3] (H-CCEYCCNPACTGCY-OH; disulfide 1-6, 2-10, 5-13; N-terminus and C-terminus assumed), the “Cleavage of SEQ ID NO: 3 by proteolytic substance” value at chymotrypsin is “not detectable”; with carboxypeptidase A (Carboxypetidase A, 37° C., up to 24 h) it was “Yes”. In addition, the “binding to intestinal epithelial cells” value at guanylate cyclase C is reported as “reduction in SEQ ID NO:3 binding”. Besides, the “SEQ ID NO:3 average concentration” value in the data set with carboxypeptidase A (T0, carboxypeptidase A time course) is recorded as 5115 (+/−121) nM; with carboxypeptidase A (T240 (240 min)), 4438 (+/−188) nM. In addition, the “average calculated SEQ ID NO:3 product concentration” value with carboxypeptidase A (T24 h samples) is given as 1.3 (+/−0.04) μg/mL. Further, the “SEQ ID NO:3 calculated concentration” value in the data set on carboxypeptidase A (all samples (0, 3, 24 h and controls)) was 8.4 (+/−1.2) μg/mL. For the same compound, the “calculated concentration of the SEQ ID NO:3 products” value was 0.8 (+/−0.02) μg/mL with carboxypeptidase A (time 0 control (with inhibitor)) and 0.8 (+/−0.01) μg/mL in the data set with carboxypeptidase A (time 0 samples).
Take `C[C@@H]1NC(=O)[C@@H]2CCCN2C(=O)[C@H](CC(N)=O)NC(=O)[C@@H]2CSSC[C@H](N)C(=O)N[C@H]3CSSC[C@H](NC1=O)C(=O)N[C@@H]([C@@H](C)O)C(=O)NCC(=O)N[C@H](C(=O)O)CSSC[C@H](NC(=O)[C@H](Cc1ccc(O)cc1)NC(=O)[C@H](CCC(=O)O)NC3=O)C(=O)N2` [SEQ ID NO:6] (H-CCEYCCNPACTGC-OH; disulfide 1-6, 2-10, 5-13): in the data set on carboxypeptidase A (T0), the “average concentration of SEQ ID NO:6 (digestion product of SEQ ID NO:3)” value was 108 (+/−2) nM.
